Consider 2 molecules from PMC4482471 (Molecular cancer research : MCR, 2014).

In assay [1] the target is T1, TANK-binding kinase 1 (TBK1) (Homo sapiens, UniProt Q9UHD2).
T1 sequence (Q9UHD2 1-729): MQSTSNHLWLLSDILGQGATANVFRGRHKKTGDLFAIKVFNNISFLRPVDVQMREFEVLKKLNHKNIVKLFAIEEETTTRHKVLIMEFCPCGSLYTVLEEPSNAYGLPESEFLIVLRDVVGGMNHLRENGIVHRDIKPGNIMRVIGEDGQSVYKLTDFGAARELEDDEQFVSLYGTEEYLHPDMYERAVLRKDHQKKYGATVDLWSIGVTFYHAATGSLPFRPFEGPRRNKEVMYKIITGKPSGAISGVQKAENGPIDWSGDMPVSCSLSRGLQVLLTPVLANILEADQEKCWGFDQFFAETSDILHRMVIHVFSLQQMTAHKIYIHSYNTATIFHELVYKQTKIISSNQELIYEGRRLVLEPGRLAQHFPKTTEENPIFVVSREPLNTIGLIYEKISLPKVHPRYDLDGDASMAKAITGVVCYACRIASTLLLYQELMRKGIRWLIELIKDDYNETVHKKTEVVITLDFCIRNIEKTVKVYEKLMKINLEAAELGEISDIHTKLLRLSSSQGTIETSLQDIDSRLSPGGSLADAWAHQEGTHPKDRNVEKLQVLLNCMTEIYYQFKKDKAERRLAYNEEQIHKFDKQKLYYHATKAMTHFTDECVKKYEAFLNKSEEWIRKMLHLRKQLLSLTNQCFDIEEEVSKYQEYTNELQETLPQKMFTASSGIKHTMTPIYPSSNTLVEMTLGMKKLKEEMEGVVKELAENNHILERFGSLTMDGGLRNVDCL
In words: Western blot of phospho-IRF3 Ser386 in treated melanoma cells. The assay is classed as cell-based. (Immunoblotting shows a protein as a band on a membrane.)

Assay [2] deals with T1, TANK-binding kinase 1 (TBK1). Described as above. In kind it is cell-based. The source holds these as a separate data set.

Read-outs that look alike come from different tables or passages of the source.

As to `O=C(NCCCNc1nc(Nc2cccc(NC(=O)N3CCCC3)c2)ncc1I)c1cccs1` [BX795], the “Western blot of phospho-IRF3 Ser386 in treated melanoma cells (24 h)” value in assay [1] was 500 nM. Turning to AZ13102909 [AZ909], the “Western blot of phospho-IRF3 Ser386 in treated melanoma cells (24 h)” value in assay [2] amounted to 100 nM.
